The source of these data is paper PMC12072186, “A Novel Small Molecule Enhances Stable Dopamine Delivery to the Brain in Models of Parkinson’s Disease” (International Journal of Molecular Sciences, 2025).

Each structure is given as a SMILES string. Read-outs that look alike come from different tables or passages of the source.

In series [1] the test system is MPTP models of PD. Details: method as in PMID 11724929. The settings on record: cited from earlier work.
Series [2] is described as follows: In vivo metabolism, metabolite profiling in rat brain and plasma (LC-MS/MS). Conditions: male, Sprague Dawley, intraperitoneal, 50 mg/kg; relative abundance brain vs plasma, rat.
Method: In vivo metabolism: We performed a metabolism study (Figure 2) in male Sprague Dawley rats (6–8 weeks old) after a single i.p. injection of 50 mg/kg Pegasus. Plasma and brain samples were serially collected and assessed for the presence of possible phase-I and phase-II metabolites. […] The relative abundance of Pegasus and its metabolites in the brain and plasma was determined at the ionization parameters of the parent.
Metabolite profiling was performed in rat brain and plasma samples to detect phase-I and phase-II metabolites in male Sprague Dawley rats (6–8 weeks old, n = 6) injected (i.p.) with 50 mg/kg Pegasus. The formulation vehicle of Pegasus was 5% DMSO + 35% polyethylene glycol (PEG) 400 + 60% normal saline, and this formulation was used to measure the plasma and brain concentrations of Pegasus and all other metabolites. All samples obtained after Pegasus dosing in rats by the i.p. route of administration were used for metabolite profiling and compared to normal saline. Blood (n = 16 samples) was collected via retro-orbital plexus puncture 0.25, 1, 4, 6, 8, and 24 h pre-dose, and brain sampling was 1, 4, and 24 h post-dose (n = 6 per group). The brain samples were cleaned and perfused, then washed with PBS. The brains (approximately 1.5 g) were transferred to a 50 mL centrifuge tube and 36 mL of ice-cold PBS was added. The mixture was homogenized for about 1–2 min to obtain a uniform suspension. The precipitate was allowed to settle for 30 min at 4 °C, and 15 mL of the middle layer was collected. The plasma and brain samples were processed by the protein precipitation method. In total, 175 μL of acetonitrile was added to 25 μL of plasma samples. The samples were mixed, followed by centrifugation at 4000 rpm for 20 min. The supernatant from the samples was subjected to LC-MS/MS analysis.
The samples were analyzed by liquid chromatography tandem mass spectrometry (HPLC: LC series, Shimadzu, Chiyoda-ku, Tokyo, Japan; mass spectrometer: API4000 Triple Quad mass spectrometer, Applied Biosystems, Carlsbad, CA, USA). The samples (n = 6) were processed using protein precipitation and 1 mM stock solution, prepared in DMSO, spiked into acetonitrile to a final concentration of 4 µM, and processed using liquid chromatography tandem mass spectrometry, employing a linear gradient method using MH+/MH−(Q1) and product ion (MS/MS) scans. The evaluation of the Pegasus metabolites included demethylation, de-hydroxylation, amide cleavage, oxidation, de-hydrogenation, glucuronidation, sulfation, glutathione conjugation, and several other possibilities. The relative abundance of Pegasus and its metabolites in the brain and plasma was determined at the ionization parameters of the parent.
For series [3] the following is noted: cited from earlier work.
The subject of series [4] is MPTP-treated C57BL/6 mice. Kind of series: Rotarod test in MPTP-treated mice. It is filed as in vivo, mouse. Conditions: MPTP 25 mg/kg i.p. day 1–5; treatment day 1–13; vs MPTP vehicle control. As for the experimental part: (§1) MPTP was injected to male C57BL/6 mice for 5 consecutive days (Figure 4A) to destroy DA neurons, and then the mice were treated with Pegasus alone or Pegasus + Benserazide compared to L-dopa alone or L-Dopa + Benserazide.
(§2) From day 1 to day 5, MPTP was administered to all the groups except Naive at a dose of 25 mg/kg, i.p., QD. Treatment with Pegasus alone (50 mg/kg, i.p., BID), a combination of Pegasus 50 mg/kg, BID + Benserazide 10 mg/kg, QD, or a combination of L-Dopa 10 mg/kg, QD + Benserazide 10 mg/kg, QD or standalone L-Dopa 10 mg/kg, QD, started on day 1 and continued until day 13. On day 13, after the first dose of Pegasus, 4 animals/time point from each group were sacrificed at 0.5, 1, 3, 6, and 12 h, and the blood and brains were collected.
The mice were placed on an accelerating Rotarod (Columbus Instruments, Columbus, OH, USA) equipped with individual timers for each mouse. […] The mice were trained for 3 consecutive days before the final measurement.

Series [5] has as its system MPTP-treated C57BL/6 mice. The experiment in a line: Grip strength test in MPTP-treated mice. It is filed as in vivo, mouse. Conditions: MPTP 25 mg/kg i.p. day 1–5; treatment day 1–13; vs MPTP vehicle control. As to the method:
as §1, §2
The maximal muscle/grip strength of forelimbs was measured using a strength meter.

For `CN(C)c1ccc(O)c2c1C[C@H]1C[C@H]3[C@H](N(C)C)C(O)=C(C(N)=O)C(=O)[C@@]3(O)C(O)=C1C2=O` [Minocycline], the Striatal cell loss entry in series [1] is recorded as “prevents striatal cell loss”.
For `NC(=O)CCC(=O)NCCc1cc(O)c(O)c(SCC(N)C(=O)O)c1` (stereo not drawn) [M11], the concentration ratio (Kp) in series [2] is 1.31.
For the molecule `N[C@@H](Cc1ccc(O)c(O)c1)C(=O)O` [L-Dopa], the “Half-life T1/2” value is 60 to 90 min in series [3] (in combination with DDCI) and 46.2 to 64.8 min in series [3] (levodopa administered alone). For the same molecule, the Levodopa brain entry result in series [3] (in combination with dopa-carboxylase enzyme inhibitor (DDCI)) is listed as “up to 10%”. Also, the “Share of oral dose that reaches the brain” value in series [3] (levodopa administered alone) is 1%. For the same molecule, the “Share reaching the brain” value in series [3] (with DDCI and selective COMT inhibitors) is on record as “up to 40%”. In addition, in series [4], the “Latency to fall (Rotarod)” value is given as “significantly increased latency to fall”. Also, the Forelimb grip strength result in series [5] is given as “significantly reversed back to normal levels”.
